Results from paper PMC7321301, “Characteristics of New Peptides GQLGEHGGAGMG, GEHGGAGMGGGQFQPV, EQGFLPGPEESGR, RLARAGLAQ, YGNPVGGVGH, and GNPVGGVGHGTTGT as Inhibitors of Enzymes Involved in Metabolic Syndrome and Antimicrobial Potential” (Molecules, 2020).
No end group written: not given here.

Tests used:
[1] = target: T1, COX-1 (Ovis aries, UniProt P05979); experiment: COX-1 inhibitory activity (COX Activity Assay kit) and kinetics; type: biochemical
T1 sequence (P05979 25-600): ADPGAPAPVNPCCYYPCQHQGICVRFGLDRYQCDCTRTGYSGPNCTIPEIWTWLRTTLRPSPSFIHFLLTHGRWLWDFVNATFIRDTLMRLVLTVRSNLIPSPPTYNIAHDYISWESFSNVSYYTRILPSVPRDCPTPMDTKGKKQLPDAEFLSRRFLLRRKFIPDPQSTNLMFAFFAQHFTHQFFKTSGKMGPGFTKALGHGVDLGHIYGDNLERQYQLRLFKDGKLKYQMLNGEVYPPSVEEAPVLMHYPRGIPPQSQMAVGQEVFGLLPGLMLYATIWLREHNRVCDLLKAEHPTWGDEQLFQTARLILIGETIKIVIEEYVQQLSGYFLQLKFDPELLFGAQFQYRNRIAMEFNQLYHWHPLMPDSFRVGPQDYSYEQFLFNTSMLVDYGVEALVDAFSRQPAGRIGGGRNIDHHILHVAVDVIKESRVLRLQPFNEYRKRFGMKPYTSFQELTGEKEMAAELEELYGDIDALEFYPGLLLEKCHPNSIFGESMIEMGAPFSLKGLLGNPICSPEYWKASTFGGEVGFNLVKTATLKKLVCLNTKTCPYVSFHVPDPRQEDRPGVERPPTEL
Method: For all inhibitory activity, IC50 was calculated. […] The IC50 value was calculated from the plotted graph of the inhibition activity for the five different peptide concentrations. The effect of the peptide on COX-1 and COX-2 was measured using the COX Activity Assay kit from Cayman Chemical (Item No. 760151, Ann Arbor, MI, USA). COX activity was determined according to the instructions provided with the kit. The enzyme activity was assayed by calorimetric measurement of the appearance of oxidized N,N,N′,N′-Tetramethyl-p-phenylenediamine (TMPD) at 590 nm using BioTek Microplate Readers (Epoch™ 2 BioTek, Bad Friedrichshall, Germany). […] The kinetic parameters were evaluated by Lineweaver–Burk’s method. The reaction conditions were the same as in the enzyme inhibitory activity assay.

[2] = target: T2, α-amylase from hog pancreas (Sus scrofa, UniProt P00690); experiment: α-amylase inhibitory activity (starch, DNS) and kinetics; type: biochemical
T2 construct: α-amylase from hog pancreas (50 U/mg); from tissue; host or cells: hog pancreas
T2 sequence (P00690 16-511): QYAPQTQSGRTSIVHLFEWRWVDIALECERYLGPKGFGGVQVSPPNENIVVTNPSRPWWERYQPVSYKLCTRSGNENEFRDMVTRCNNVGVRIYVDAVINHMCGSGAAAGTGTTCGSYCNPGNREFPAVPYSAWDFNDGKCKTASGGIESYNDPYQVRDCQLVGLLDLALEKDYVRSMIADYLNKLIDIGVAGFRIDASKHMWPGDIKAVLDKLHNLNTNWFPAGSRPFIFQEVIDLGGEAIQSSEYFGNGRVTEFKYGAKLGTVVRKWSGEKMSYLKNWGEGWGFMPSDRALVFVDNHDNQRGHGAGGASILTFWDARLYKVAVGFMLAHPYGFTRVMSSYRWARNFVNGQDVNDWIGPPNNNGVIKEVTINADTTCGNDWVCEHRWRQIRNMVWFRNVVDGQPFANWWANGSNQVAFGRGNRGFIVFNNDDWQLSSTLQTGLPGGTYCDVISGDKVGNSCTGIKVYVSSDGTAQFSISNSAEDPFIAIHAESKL
Method: For all inhibitory activity, IC50 was calculated. […] The IC50 value was calculated from the plotted graph of the inhibition activity for the five different peptide concentrations. […] To measure the α-amylase inhibitory activity, a mixture of 25 μL of α-amylase solution and 25 μL of sample was first incubated at 40 °C for 5 min. Then, 50 μL of 1% (w/v) soluble starch (dissolved in 100 mM phosphate buffer containing 6 mM NaCl, pH 7) was added. After 10 min, the reaction was stopped by adding 100 μL of 3,5-dinitrosalicylic acid (DNS) and heating for 10 min. Then, the mixture was made up to 300 μL with double distilled water. After that, the absorbance at 540 nm was measured using BioTek Microplate Readers (EpochTM 2 BioTek, Bad Friedrichshall, Germany). The final results were compared with the activity of the same amount of enzyme without the inhibitor. All assays were carried out in triplicate. For IC50 value determination, the inhibitory activity for […] of samples was investigated. […] The kinetic parameters were evaluated by Lineweaver-Burk's method. The reaction conditions were the same as in the enzyme inhibitory activity assay.

[3] = tested on: HECa10 cells; experiment: MTT test; type: cell-based, murine; conditions: 24-h incubation, 0.1–100 µg/mL
Method: The study was conducted according to the procedure described by Rokicki et al.. HECa10 cells after 80–90% confluence were trypsinized (3 min, 37 °C), centrifuged (300 g, 5 min), counted, and plated in 96-well plates at a concentration of 1 × 10^4 cells/well. Then, 24 h after seeding, cells were washed with phosphate-buffered saline (PBS) solution and culture medium (Dulbecco’s Modified Eagle Medium (DMEM) + 10% fetal bovine serum (FBS) + antibiotics, all from Life Technologies, Warsaw, Poland) was added with test factors in concentrations: 0.1; 1; 5; 10; 50; 100 µg/mL). Then, 24 h after addition of the compounds, proliferation tests (MTT, NR, LDH) were performed. The color intensity was determined using a Fluostar Omega microplate reader. Results are presented as the mean ± SD of 3 independent experiments (n = 12).
Briefly, the cells were seeded in a 96-well culture plate at a concentration of 1 × 10^4 cells/well. Then, 24 h after seeding, the cells were rinsed twice with PBS (Life Technologies, Warsaw, Poland) and resuspended in fresh growth medium. Peptide fractions were added at concentrations of 0 (control), 0.1, 1, 5, 10, 50, and 100 µg/mL. After 24 h incubation with the proteins, the assessment of cell metabolic activity based on MTT tests was performed (MTT kit, Sigma Aldrich, Poznań, Poland). The absorbance was measured at 570 nm with a FLUOstar Omega reader (BMG Labtech GmbH, Ortenberg, Germany). The results are presented as the percentage of the control values (mean ± SD). Each assay was performed in triplicate (n = 18).

| Sequence | IC50 [1] [µM] | IC50 [2] [µM] | MTT test, HECa10 cell count compared to control [3] |
| --- | --- | --- | --- |
| EQGFLPGPEESGR [ER-13, EQGFLPGPEESGR] | 4.78 | 51.1 | no statistically significant differences |
| GEHGGAGMGGGQFQPV [GV-16, GEHGGAGMGGGQFQPV] | 8 | 44.6 | no statistically significant differences |
| GNPVGGVGHGTTGT [GT-14, GNPVGGVGHGTTGT] | 12.3 | 50 | no statistically significant differences |
| GQLGEHGGAGMG [GG-12, GQLGEHGGAGMG] | 7.11 | 53 | no statistically significant differences |
| RLARAGLAQ [RQ-9, RLARAGLAQ] | 0.325 | 69.9 | no statistically significant differences |
| YGNPVGGVGH [YH-10, YGNPVGGVGH] | 17.4 | 80.3 | declined statistically significantly |
